Common to all, as to assay: DTP human tumour cell line panel, 48 h
The test system of assay [1] is SF-539 CNS.
Assay [2] relates to SK-OV-3 ovarian.
The subject of assay [3] is T-47D breast.
For assay [4], the system named is MCF7 breast.
Assay [5] deals with SN12C renal.
The subject of assay [6] is NCI/ADR-RES ovarian.
The test system of assay [7] is DU-145 prostate.
Assay [8] relates to SNB-75 CNS.
Assay [9] deals with LOX IMVI melanoma.

Here are results for 28 molecules from PubChem BioAssay (NCI).

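Results reflect a 48-hour exposure of cells in 96-well plates to compound at five concentrations. Abbreviation: GI50, concentration required for 50% inhibition of growth. TGI is the concentration that stops growth completely.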

As for `NS(=O)(=O)c1ccc(/C=C/c2ccc(F)cc2)cc1`, the GI50 in assay [1] was 29.1 µM; in assay [9], 26.7 µM. Further, the TGI was 96.1 µM in assay [1]; 57.6 µM in [2]; 57.6 µM in assay [3]; > 100 µM in assay [4]; > 100 µM in assay [5]; > 100 µM in assay [6]. The TGI in assay [7], in assay [8] and in assay [9] was > 100 µM each time.

Take `CN(C)c1ccc(/C(F)=C(F)/C(F)=C(F)/C(F)=C(\F)c2ccc(Br)cc2)cc1`: the TGI in assay [1] was > 100 µM; in assay [2], > 100 µM; in assay [3], > 100 µM; in assay [4], > 100 µM; in assay [5], > 25.5 µM; in [6], 22.4 µM. Moreover, the TGI in [7] is > 63.7 µM; in assay [8], 92.9 µM; in assay [9], > 100 µM.

In the case of `OCC(O)C(O)C(O)C(O)c1nc2ccc(Cl)cc2[nH]1` (stereo not drawn), the TGI in assay [1], in assay [2], in assay [3], in [4], in assay [5] and in assay [6] was > 100 µM throughout. Moreover, the TGI in assay [7], in assay [8] and in assay [9] was > 100 µM in each case.

Take `O=C(N/N=C/C=C/c1ccc([N+](=O)[O-])o1)c1cc2ccccc2cc1O`: the GI50 was 2.44 µM in assay [1]; 3.36 µM in assay [2]; 1440 nM in assay [3]; 711 nM in assay [4]; 2020 nM in [5]; 1360 nM in [6]. The GI50 is 2260 nM in assay [7], 1970 nM in [8] and 0.356 µM in assay [9]. Moreover, the TGI in [1] is 10.2 µM; in [2] it was 38.5 µM; in [3] it was 3.68 µM; in assay [4], 3.54 µM; in [5], 18.9 µM; in assay [6] it was 7.27 µM. For the same molecule, the TGI in [7] is 8.67 µM; in [8] it was 6.12 µM; in assay [9], 1.58 µM.

`Cc1ccc(OCC2OC(n3cnc4c(Cl)nc(N)nc43)CC2Oc2ccc(C)cc2)cc1` (stereo not drawn): the TGI in assay [1] was > 100 µM; in [2] it was > 100 µM; in assay [3] it was > 100 µM; in assay [4], > 13.3 µM; in assay [5] it was > 100 µM; in assay [6], > 75.5 µM. Also, the TGI in assay [7], in [8] and in [9] was > 100 µM each time.

With `N#CC1(C#N)NC(c2cccs2)C(C#N)(C#N)NC1c1cccs1` (stereo not drawn), the TGI was 47.6 µM in [1]; > 100 µM in assay [2]; > 100 µM in assay [3]; 51.8 µM in [4]; > 100 µM in assay [5]; > 100 µM in [6]. Also, the TGI was > 100 µM in [7], > 100 µM in [8] and 37.3 µM in [9].

For the molecule `CCCCCCCC/C=C\CCCCCCC/C=C1\C[C@](/C=C/C(=O)OC)(CO)OC1=O`, the TGI in assay [1] is 3.82 µM; in [2], 19.1 µM; in [3], 13.1 µM; in assay [4], 14.7 µM; in assay [5], 4.01 µM; in [6], 14.6 µM. In addition, the TGI amounted to 24.6 µM in assay [7], 4.59 µM in assay [8] and 3.02 µM in assay [9].

For `O=C1C(Cl)=C(OCCCl)C(=O)c2c(O)ccc(O)c21`, the TGI worked out at 31.8 µM in assay [1]; 32.1 µM in assay [2]; 4 µM in [3]; 5.19 µM in assay [4]; 28 µM in assay [5]; 69.1 µM in assay [6]. The TGI in assay [7] worked out at 32.2 µM; in assay [8] it was 26.3 µM; in [9] it was 12.4 µM.

On to `CCOC(=O)c1nc2ccc(C(F)(F)F)cc2nc1Oc1cc(OC)c(OC)c(OC)c1`, for which the TGI in assay [1], in assay [2], in assay [3], in [4], in assay [5] and in [6] was > 100 µM throughout. The TGI in assay [7] was > 100 µM; in [8], 68.6 µM; in assay [9] it was > 100 µM.

As to `C[n+]1cccc2c(=O)c3ccccc3oc21`, the TGI in assay [1], in [2], in [3], in [4], in assay [5] and in [6] was > 100 µM throughout. The TGI in [7], in assay [8] and in [9] was > 100 µM in each case.

As for `OC1(c2ccccc2)CCN(Cc2c[nH]c3ccccc23)CC1`, the TGI in assay [1], in [2], in assay [3], in assay [4], in [5] and in assay [6] was > 100 µM each time. Moreover, the TGI in assay [7], in assay [8] and in assay [9] was > 100 µM each time.

For the molecule `Cc1ccc2c(=O)cc(-c3ccc(Cl)s3)[nH]c2n1`, the TGI was 3.93 µM in [1]; 53.3 µM in [2]; > 100 µM in assay [3]; > 100 µM in assay [4]; > 52.9 µM in [5]; > 100 µM in [6]. Also, the total growth inhibition concentration (TGI) in assay [7] was > 100 µM; in assay [8], > 27.9 µM; in assay [9] it was > 100 µM.

As to `CCOP(=O)(/C=C\n1cc(C)c(=O)[nH]c1=O)OCC`, the TGI in assay [1], in assay [2], in assay [3], in assay [4], in [5] and in assay [6] was > 100 µM in each case. In addition, the TGI in assay [7], in [8] and in [9] was > 100 µM in each case.

For `CSCCC(N)C(=O)NCCNc1ccc(NCCNC(=O)C(N)CCSC)c2c1C(=O)c1ccccc1C2=O` (stereo not drawn), the TGI in [1] was 3.11 µM; in assay [2] it was 10.3 µM; in assay [3] it was 10.9 µM; in assay [4], 4.77 µM; in assay [5] it was 2.55 µM; in assay [6], 16.2 µM. The figures for the TGI in [7], in assay [8] and in assay [9] were 5.4 µM, 3.65 µM and 2.54 µM, respectively.

Regarding `Cc1cc(-c2nc3cc(F)ccc3s2)ccc1NC(=O)[C@@H](N)CCCCN`, the TGI turned out to be 9.73 µM in assay [1]; 25.7 µM in [2]; 17.3 µM in [3]; 11.8 µM in assay [4]; 26 µM in assay [5]; 37.2 µM in assay [6]. Also, the TGI in [7] was 28.4 µM; in assay [8] it was 4.99 µM; in assay [9], 3.62 µM.

In the case of `CC(=C(c1ccccc1)c1ccccc1)N1C(=O)CC(=O)N1C`, the TGI in assay [1], in assay [2], in [3], in [4], in assay [5] and in [6] was > 100 µM each time. For the same molecule, the TGI is > 100 µM in assay [7], > 100 µM in [8] and 31.2 µM in assay [9].

Take `O=C1C[C@@H](C(=O)OCc2ccccc2)NC(=O)C[C@@H](C(=O)OCc2ccccc2)NC(=O)C[C@@H](C(=O)OCc2ccccc2)N1`: the TGI in [1] was > 72.3 µM; in assay [2] it was 97.1 µM; in assay [3], > 100 µM; in assay [4], > 100 µM; in assay [5] it was > 100 µM; in [6], > 100 µM. In addition, the TGI is > 100 µM in assay [7], 13.7 µM in assay [8] and > 100 µM in assay [9].

Regarding `CC1CCCC2(CC[N+](C)(CCC[N+](C)(C)C)CC2)C1` (stereo not drawn), the TGI in [1], in assay [2], in [3], in assay [4], in assay [5] and in [6] was > 100 µM throughout. Moreover, the TGI in assay [7], in assay [8] and in [9] was > 100 µM in each case.

Consider `CCCC(=O)NC(Nc1ccc(S(=O)(=O)Nc2cc(C)on2)cc1)(C(=O)OCC)C(F)(F)F` (stereo not drawn), for which the TGI in assay [1], in [2], in assay [3], in [4], in assay [5] and in assay [6] was > 100 µM in each case. The TGI in assay [7], in [8] and in assay [9] was > 100 µM each time.

Take `CC(=O)NCCC1CN(C(=O)/C=C/I)c2ccccc21` (stereo not drawn): the TGI in assay [1] amounted to 21.1 µM; in assay [2], 27.8 µM; in assay [3], 4.46 µM; in assay [4], 2.87 µM; in [5] it was 13.3 µM; in [6] it was 33.3 µM. The results for the TGI in assay [7], in assay [8] and in [9] were 29.2 µM, 30.7 µM and 3.25 µM, respectively.

As for `CSCSSC`, the TGI in [1], in assay [2], in assay [3], in assay [4], in assay [5] and in assay [6] was > 100 µM throughout. Also, the concentration for total growth inhibition (TGI) in assay [7], in assay [8] and in assay [9] was > 100 µM each time.

As for `COc1cccc(CCN2CCN(CCCc3ccccc3)CC2)c1`, the total growth inhibition concentration (TGI) in assay [1], in assay [2], in assay [3], in [4], in [5] and in assay [6] was > 100 µM each time. Besides, the TGI in assay [7], in assay [8] and in [9] was > 100 µM in each case.

As to `CC(NC(=O)C(NC(=O)CNC(=O)OC(C)(C)C)C(C)C)C(=O)Oc1c(Cl)c(Cl)c(Cl)c(Cl)c1Cl` (stereo not drawn), the TGI in assay [1] was 33.4 µM; in assay [2] it was 51.5 µM; in assay [3] it was 62.4 µM; in assay [4], 74.1 µM; in assay [5] it was 42 µM; in assay [6], 39.1 µM. Further, the figures for the TGI in [7], in [8] and in [9] were 49.3 µM, 78.7 µM and 32.5 µM, respectively.

As for `O=C1NC(=O)C(C(CC(=O)c2ccc([N+](=O)[O-])cc2)c2ccccc2)C(=O)N1` (stereo not drawn), the TGI in assay [1] was > 100 µM; in assay [2] it was > 100 µM; in [3], 67 µM; in assay [4] it was 27 µM; in assay [5], > 100 µM; in [6], > 100 µM. The TGI was > 100 µM in [7], > 100 µM in assay [8] and 38.7 µM in assay [9].

Take `Cc1ccc(OCC2OC(n3cnc4nc(N)nc(Cl)c43)CC2Oc2ccc(C)cc2)cc1` (stereo not drawn): the TGI in [1] was > 100 µM; in assay [2] it was > 100 µM; in [3], 34.7 µM; in assay [4] it was 49 µM; in assay [5], 41.4 µM; in [6], 47.2 µM. The TGI in assay [7] was 35.9 µM; in [8], 30.4 µM; in assay [9], > 100 µM.

In the case of `Cc1ccc([S@](=O)c2occc2C=O)cc1`, the TGI in assay [1] is 25.8 µM; in assay [2], 26.5 µM; in [3] it was 7.11 µM; in assay [4], 13.3 µM; in assay [5] it was 27.7 µM; in assay [6] it was > 61 µM. The TGI came to 33.1 µM in assay [7], 30.9 µM in assay [8] and 3.93 µM in assay [9].

For `O=[N+]([O-])c1ccc2sc(C=Nc3cnccn3)cc2c1`, the TGI in [1] was > 100 µM; in assay [2], > 100 µM; in assay [3], 28 µM; in assay [4], > 100 µM; in [5] it was > 100 µM; in assay [6], > 100 µM. Also, the TGI was > 100 µM in [7], 63.5 µM in [8] and 60.6 µM in assay [9].

`CO/N=C1\CC(NC(=O)CNC(=O)OC(C)(C)C)c2ccsc21` (stereo not drawn): the TGI in [1], in assay [2], in assay [3], in [4], in assay [5] and in assay [6] was > 100 µM in each case. Also, the TGI in assay [7], in assay [8] and in [9] was > 100 µM throughout.

One may read the GI50 as the concentration giving 50% growth inhibition. Broadly, the TGI is the concentration giving total growth inhibition. A high value points to less potent growth arrest.
